Source: ChEMBL document CHEMBL3826945, “Discovery of novel dihydrobenzofuran cyclopropane carboxylic acid based calcium sensing receptor antagonists for the treatment of osteoporosis” (Bioorg Med Chem Lett, 2016)
Activity calls are given as the source filed them. The calls are words filed in the database; no cut-off is given here.

Experiments:
[1] = molecular target: T1, Extracellular calcium-sensing receptor (Homo sapiens, UniProt P41180); experiment: Antagonist activity at calcium sensing receptor (unknown origin) by cell based FLIPR assay; assay type: functional
T1 sequence (P41180 whole entry): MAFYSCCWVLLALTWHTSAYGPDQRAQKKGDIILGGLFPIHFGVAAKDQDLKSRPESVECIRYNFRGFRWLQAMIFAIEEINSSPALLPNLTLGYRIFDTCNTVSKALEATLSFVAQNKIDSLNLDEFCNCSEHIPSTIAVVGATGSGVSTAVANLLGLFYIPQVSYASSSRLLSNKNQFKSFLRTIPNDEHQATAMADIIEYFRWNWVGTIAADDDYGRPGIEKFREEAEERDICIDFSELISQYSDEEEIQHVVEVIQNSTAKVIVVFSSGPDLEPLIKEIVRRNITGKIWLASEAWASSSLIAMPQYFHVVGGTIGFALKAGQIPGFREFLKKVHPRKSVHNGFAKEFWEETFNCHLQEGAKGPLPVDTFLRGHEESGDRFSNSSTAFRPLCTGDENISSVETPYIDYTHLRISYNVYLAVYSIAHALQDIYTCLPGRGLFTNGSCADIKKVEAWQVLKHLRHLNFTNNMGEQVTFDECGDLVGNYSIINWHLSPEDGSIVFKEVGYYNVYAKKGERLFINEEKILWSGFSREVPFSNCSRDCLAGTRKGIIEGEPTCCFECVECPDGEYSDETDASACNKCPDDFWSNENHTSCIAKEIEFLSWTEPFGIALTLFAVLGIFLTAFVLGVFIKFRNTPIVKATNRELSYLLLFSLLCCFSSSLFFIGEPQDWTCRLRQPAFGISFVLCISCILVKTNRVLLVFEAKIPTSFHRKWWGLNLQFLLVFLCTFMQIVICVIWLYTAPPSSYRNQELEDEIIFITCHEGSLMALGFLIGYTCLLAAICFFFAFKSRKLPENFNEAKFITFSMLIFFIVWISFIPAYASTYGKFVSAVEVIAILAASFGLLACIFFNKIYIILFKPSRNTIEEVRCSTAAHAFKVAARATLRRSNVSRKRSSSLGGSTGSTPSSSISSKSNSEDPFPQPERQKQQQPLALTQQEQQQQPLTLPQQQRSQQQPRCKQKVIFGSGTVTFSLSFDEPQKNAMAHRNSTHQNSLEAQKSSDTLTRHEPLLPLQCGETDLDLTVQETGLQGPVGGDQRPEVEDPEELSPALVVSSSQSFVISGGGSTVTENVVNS

[2] = Clearance in Sprague-Dawley rat plasma at 2 mg/kg, iv or 5 mg/kg, po; assay type: ADME, organism-based
[3] = Oral bioavailability in Sprague-Dawley rat at 5 mg/kg; assay type: ADME, organism-based; details: in vivo
[4] = Cmax in Sprague-Dawley rat at 2 mg/kg, iv or 5 mg/kg, po; assay type: ADME, organism-based; details: in vivo
[5] = Half life in Sprague-Dawley rat at 2 mg/kg, iv or 5 mg/kg, po; assay type: ADME, organism-based; details: in vivo
[6] = Tmax in Sprague-Dawley rat at 2 mg/kg, iv or 5 mg/kg, po; assay type: ADME, organism-based; details: in vivo
Rattus norvegicus [7] = experiment: Stimulation of parathyroid hormone release in po dosed overnight fasted Sprague-Dawley rat serum after 7 days by ELISA; assay type: functional, organism-based
Rattus norvegicus [8] = experiment: Stimulation of parathyroid hormone release in overnight fasted Sprague-Dawley rat serum at 30 mg/kg, po measured within 1 hour by ELISA relative to vehicle treated control; assay type: functional
Rattus norvegicus [9] = experiment: Stimulation of parathyroid hormone release in overnight fasted Sprague-Dawley rat serum at 30 mg/kg, po measured after 2 hrs by ELISA; assay type: functional, organism-based

Row | SMILES | IC50 [1] [nM] | further results
1 | Cc1ccc(C(C)OC[C@H](O)CNC(C)(C)Cc2ccc3ccccc3c2)c2c1OC1C(C(=O)O)C21 (stereo partly specified) | 64.3 | 
2 | Cc1ccc(CC(C)(C)NC[C@@H](O)CO[C@H](C)c2ccc(C)c3c2[C@@H]2[C@H](O3)[C@H]2C(=O)O)cc1C | 17.7 | 
3 | Cc1ccc([C@@H](C)OC[C@H](O)CNC(C)(C)Cc2ccc3ccccc3c2)c2c1O[C@H]1[C@H](C(=O)O)[C@@H]21 | 21.6 | 
4 | CSc1ccc(CC(C)(C)NC[C@@H](O)CO[C@H](C)c2ccc(C)c3c2[C@@H]2[C@H](O3)[C@H]2C(=O)O)cc1 | 39.3 | 
5 | Cc1ccc([C@@H](C)OC[C@H](O)CNC(C)(C)CCCc2ccccc2)c2c1O[C@@H]1[C@@H](C(=O)O)[C@H]21 | 28.4 | 
6 | Cc1ccc([C@@H](C)OC[C@H](O)CNC(C)(C)Cc2ccc3sccc3c2)c2c1O[C@@H]1[C@@H](C(=O)O)[C@H]21 | 9.62 | 
7 | COc1ccc(CC(C)(C)NC[C@@H](O)CO[C@H](C)c2ccc(C)c3c2[C@@H]2[C@H](O3)[C@H]2C(=O)O)c(Cl)c1 | 19.6 | clearance [2]: 41 mL/min/kg; bioavailability [3]: 16.5%; Cmax [4]: 300 nM; half-life [5]: 2.9 h
8 | Cc1ccc(C(C)OC[C@H](O)CNC(C)(C)CC2Cc3ccccc3C2)c2c1OC1C(C(=O)O)C21 (stereo partly specified) | 117 | 
9 | Cc1ccc(C(C)OC[C@H](O)CNC(C)(C)Cc2ccc(Cl)c(F)c2)c2c1OC1C(C(=O)O)C21 (stereo partly specified) | 203 | 
10 | Cc1ccc([C@@H](C)OC[C@H](O)CNC(C)(C)Cc2ccc3ccccc3c2)c2c1O[C@@H]1[C@@H](C(=O)O)[C@H]21 | 7.45 | 
11 | Cc1ccc([C@@H](C)OC[C@H](O)CNC(C)(C)CCSc2ccccc2)c2c1O[C@@H]1[C@@H](C(=O)O)[C@H]21 | 50.8 | 
12 | Cc1ccc([C@@H](C)OC[C@H](O)CNC(C)(C)Cc2ccc3c(c2)CCS3(=O)=O)c2c1O[C@@H]1[C@@H](C(=O)O)[C@H]21 | > 10000 | 
13 | Cc1ccc([C@@H](C)OC[C@H](O)CNC(C)(C)Cc2ccc3ncccc3c2)c2c1O[C@@H]1[C@@H](C(=O)O)[C@H]21 | 457 | 
14 | CSc1ccc(CC(C)(C)NC[C@@H](O)CO[C@H](C)c2ccc(C)c3c2[C@@H]2[C@H](O3)[C@H]2C(=O)O)cc1F | 27.6 | clearance [2]: 40.2 mL/min/kg; Tmax [6]: < 1 h; Activity (Rattus norvegicus [7]): Dose-dependent effect; fold change (FC) (Rattus norvegicus [8]): 3; Activity (Rattus norvegicus [9]): inactive; bioavailability [3]: 6.9%; Cmax [4]: 170 nM; half-life [5]: 1.9 h
